In patent US9120727B2, “Process for the preparation of pleuromutilins” (NABRIVA THERAPEUTICS AG, priority 2010, dated 2015):
Counter-ions that a name gives are not always drawn.

Columns and labels:
[1] = system: Staphylococcus aureus ATCC49951; assay: Minimum inhibitory concentration (MIC) in accordance with CLSI recommendations; assay type: cell-based
Experimental: (§1) The antimicrobial, e.g. antibacterial activity of 14-O-{[(4-amino-2-hydroxy-cyclohexyl)-sulfanyl]-acetyl}-mutilins was outlined in WO2008/113089. […] The minimum inhibitory concentration (MIC) was determined in accordance with CLSI recommendations.

[2] = system: Streptococcus pneumoniae ATCC49619; assay: as above; assay type: cell-based
Experimental: as §1

[3] = Comparative stability of crystalline and amorphous salts of compound I, stored at 60° C., HPLC; assay type: physicochemical
From the text: In the following TABLE 4 comparative stability data of the corresponding crystalline and amorphous salts of compound I are shown. [table]

[4] = Solubility of crystalline salts in water, aqueous vehicles and biorelevant media; assay type: physicochemical; conditions: 0.9% NaCl solution, FaSSIF and FeSSIF
[5] = 28 d at 60° C., * sample did not fully dissolve in water, suspension analyzed

## C=C[C@]1(C)C[C@@H](OC(=O)CS[C@@H]2CC[C@@H](N)C[C@H]2O)[C@]2(C)C(C)CC[C@]3(CCC(=O)[C@H]32)[C@@H](C)[C@@H]1O (stereo partly drawn) [compound of formula I, 14-O-{[(1R,2R,4R)-4-amino-2-hydroxy-cyclohexylsulfanyl]-acetyl}-mutilin]
[1]
  MIC: < 0.4 µg/mL
[2]
  MIC: < 0.4 µg/mL

## C=C[C@]1(C)C[C@@H](OC(=O)CS[C@@H]2CC[C@@H](N)C[C@H]2O)[C@]2(C)C(C)CC[C@]3(CCC(=O)[C@H]32)[C@@H](C)[C@@H]1O (stereo partly drawn) [Acetate (Form B) crystalline, 14-O-{[(1R,2R,4R)-4-Amino-2-hydroxy-cyclohexyl-sulfanyl]-acetyl}-mutilin acetate, crystalline Form B]
[3]; [5]
  Area % of 14-O-{[(1R,2R,4R)-4-amino-2-hydroxy-cyclohexylsulfanyl]-acetyl}-mutilin (compound I) by HPLC stored at 60° C.: 98.9 Area %
[3]; Initial
  Area % of 14-O-{[(1R,2R,4R)-4-amino-2-hydroxy-cyclohexylsulfanyl]-acetyl}-mutilin (compound I) by HPLC stored at 60° C.: 99.5 Area %

## C=C[C@]1(C)C[C@@H](OC(=O)CS[C@@H]2CC[C@@H](N)C[C@H]2O)[C@]2(C)C(C)CC[C@]3(CCC(=O)[C@H]32)[C@@H](C)[C@@H]1O (stereo partly drawn) [Hydrogen maleate crystalline, 14-O-{[(1R,2R,4R)-4-Amino-2-hydroxy-cyclohexylsulfanyl]-acetyl}-mutilin hydrogenmaleate, crystalline Form 1]
[4]
  solubility: surprisingly high

## C=C[C@]1(C)C[C@@H](OC(=O)CS[C@@H]2CC[C@@H](N)C[C@H]2O)[C@]2(C)C(C)CC[C@]3(CCC(=O)[C@H]32)[C@@H](C)[C@@H]1O (stereo partly drawn) [L-Lactate crystalline, 14-O-{[(1R,2R,4R)-4-Amino-2-hydroxy-cyclohexylsulfanyl]-acetyl}-mutilin L-lactate, crystalline Form 1]
[3]; [5]
  Area % of 14-O-{[(1R,2R,4R)-4-amino-2-hydroxy-cyclohexylsulfanyl]-acetyl}-mutilin (compound I) by HPLC stored at 60° C.: 98.3 Area %
[3]; Initial
  Area % of 14-O-{[(1R,2R,4R)-4-amino-2-hydroxy-cyclohexylsulfanyl]-acetyl}-mutilin (compound I) by HPLC stored at 60° C.: 99.4 Area %
[4]
  solubility: surprisingly high
